{
  "source": "patent US10632087B2",
  "about": "“Famciclovir and meloxicam combination therapy for functional somatic syndromes” (INNOVATIVE MED CONCEPTS, LLC., priority 2012, dated 2020)",
  "origin": "cited, not measured here",
  "system": "fibromyalgia patients",
  "details": "valacyclovir alone; not recommended as therapy for fibromyalgia",
  "data": [
    {"smiles": "CC(C)[C@H](N)C(=O)OCCOCn1cnc2c(=O)[nH]c(N)nc21", "note": "[valacyclovir]", "values": [
      {"measurement": "treatment of fibromyalgia patients", "value": "not successful"}
    ]}
  ]
}
